From patent US20120128630A1, “1-(6 MEMBERS AZO-HETEROCYCLIC)-PYRROLIN-2-ONE COMPOUNDS AS INHIBITORS OF HEPATITIS C NS5B POLYMERASE, THE PHARAMACEUTICAL COMPOSITION THEREOF AND THEIR THERAPEUTIC USE” (priority 2009, published 2012)
Like-named read-outs stand apart in the source and are kept apart here.

Tests used:
HCV replicon Luc Neo ET = assay: Luc Neo ET Replicon assay; format: cell-based, Hepatitis C virus; conditions: Table 3, titled RdRp enzyme assay results, EC50_Replicon LucneoET, 72 hours with compound, luciferase
Experimental: Human Hepatoma Huh-7 cell line was maintained in DMEM/HAMF-12 supplemented with 10% SVF, 4 mM glutamine, […] Na pyruvate, 1% penistreptomycine. HCV replicon containing Huh-7 cell lines Huh-9.13 and Luc Neo ET (Reblikon) were maintained in DMEM supplemented with 10% SVF, 2 mM glutamine, and 1×NEAA, 100 U/ml penicillin, and 100 μg/ml streptomycine. Replicon cells were maintained in medium supplemented with 1 mg/ml G418 for replicon Huh-9.13 and 0.5 mg/ml for Luc Neo et replicon unless indicated otherwise. Huh-7 and HCV replicon cell lines were maintained at 37° C. and 5% CO2 in a humidified atmosphere. Cells were dissociated at sub confluence with trypsin EDTA 1×.
Replicon Luc Neo ET is a bicistronic expression constructs (Lohmann et al, 1999, Science 285, 110-113). In brief, the structural genes of the HCV genome were replaced by heterologous sequences; the gene encoding the neomycin phosphotransferase (NPT) and the internal ribosome entry site (IRES) of the encephalomyocarditis virus (EMCV). The bicistronic construct is therefore composed of the following elements: HCV-IRES nucleotides 1-389, the NPT gene, the EMCV-IRES directing translation of downstream HCV sequences from NS2 or NS3 up to the authentic 3′ end of the genome. HCV Polyprotein harbours the cell culture adaptive mutations E1202G, T1280I, K1846T. G418-resistance is only possible with cells containing high amounts of replicon.
Cells were dissociated the day before addition of compounds and seeded in 96 well-plates at a final concentration of 77 777.77 cells.ml^−1.well^−2 in 90 μl final volume of culture medium per well and were maintained at 37° C. and 5% CO2 in a humidified atmosphere for 24 hours. 10 μl of compounds to be tested were added 24 hours after seeding. Final concentration of DMSO was 1%. Cells were incubated in the presence of compounds for 72 hours after which expression of firefly luciferase reporter gene was quantified. Briefly, culture medium was removed and cells were lysed by addition of 100 μl of lysis buffer containing 125 mM Tris Phosphate ph 7.8, 10 mM EDTA, 5 mM DTT, 50% glycerol and 5% Triton. Plates were vortexed 10 min at 1300 rpm. Cell lysat was transferred in OpaqueWhite Assay 96 well Flat Bottom plates. 100 μl of luciferin solution 1× were added to each well. Luciferin solution contained 40 mM Tris Phosphate ph 7.8, 0.2 mM EDTA, 67 mM DTT, 2.14 mM MgCl2, 5.4 mM MgSO4, 4.7×10^−4 M luciferin, 5.3×10^−4 M ATP and 2.7×10^−4 M Acetyl co enzyme A. Luminescence was immediately measured with Berthold Microlumat Plus LB 96V luminometer with an integration of 0.5 sec Inhibition was calculated using the formula:
% inhibition=1−[(RLUsample−RLUbackground)/(RLUsignal−RLUbackground)]

HCV NS5B genotype 1b = target: T1, HCV NS5B genotype 1b (Hepatitis C virus genotype 1b, UniProt Q9WMX2); assay: 3D-SCREEN assay (NS5B 3D-Screen platform, luciferase reporter gene); format: cell-based
T1 construct: The protein was expressed with a 21 amino acid C-terminal deletion to remove transmembrane domain; expressed in transfected cells; host or cells: Huh-7
Method in brief: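 Huh-7 cells transiently co-transfected with NS5BΔ21/Gal4-DBD, 3D-Sensor peptide I4/VP16 and firefly luciferase reporter. Compounds added 2 h after seeding, 1% DMSO final, 24 h incubation. Luciferase luminescence read; % inhibition relative to no-compound signal.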

[1] = EC50_3DS_NS5B, Table 1, 3D-SCREEN assay results, Huh-7 cells, 24 hours with compound, firefly luciferase reporter
[2] = EC50_3DS_NS5B, Table 2, titled Replicon assay results

Structure (SMILES)	EC50 (HCV replicon Luc Neo ET; Hepatitis C virus, 72 h)	EC50 (HCV NS5B genotype 1b; [2])	other results
Cc1ccc(C(=O)C2=C(O)C(=O)N(c3ccccn3)C2c2ccc(C(C)(C)C)cc2)cc1 (stereo not shown) [Example 2, 5-(4-tert-butyl-phenyl)-3-hydroxy-4-(4-methyl-benzoyl)-1-pyridin-2-yl-1,5-dihydro-pyrrol-2-one]	< 10000 nM		EC50 (HCV NS5B genotype 1b; [1]): 9000 nM
Cc1ccc(C(=O)C2=C(O)C(=O)N(c3ccc(C)nn3)C2c2ccc(C(C)C)cc2)cc1 (stereo not shown) [Example 8, 3-hydroxy-5-(4-isopropyl-phenyl)-4-(4-methyl-benzoyl)-1-(6-methyl-pyridazin-3-yl)-1,5-dihydro-pyrrol-2-one]	3000 nM		melting point: 279 °C; EC50 (HCV NS5B genotype 1b; [1]): 2000 nM
CC(=O)OC1=C(C(=O)c2ccc(C(C)C)cc2)C(c2ccc(OC(F)(F)F)cc2)N(c2ccc(C)nn2)C1=O (stereo not shown) [Example 86, Acetic acid 4-(4-isopropyl-benzoyl)-1-(6-methyl-pyridazin-3-yl)-2-oxo-5-(4-trifluoromethoxy-phenyl)-2,5-dihydro-1H-pyrrol-3-yl ester]	< 1000 nM	< 100 nM	
Cc1ccc(N2C(=O)C(O)=C(C(=O)c3ccc(OC(F)(F)F)cc3)C2c2ccc(C(C)C)cc2)cn1 (stereo not shown) [Example 94, 3-hydroxy-5-(4-isopropyl-phenyl)-1-(6-methyl-pyridin-3-yl)-4-(4-trifluoromethoxy-benzoyl)-1,5-dihydro-pyrrol-2-one]	< 10000 nM	< 10000 nM	
Cc1ccc(N2C(=O)C(O)=C(C(=O)c3ccc(OC(F)(F)F)cc3)C2c2ccc(OC(F)(F)F)cc2)nn1 (stereo not shown) [Example 96, 3-hydroxy-1-(6-methyl-pyridazin-3-yl)-4-(4-trifluoromethoxy-benzoyl)-5-(4-trifluoromethoxy-phenyl)-1,5-dihydro-pyrrol-2-one]	< 1000 nM	< 1000 nM	
Cc1ccc(N2C(=O)C(O)=C(C(=O)c3ccc(C(C)C)cc3)C2c2ccc(C(F)(F)F)nc2)nn1 (stereo not shown) [Example 98, 3-hydroxy-4-(4-isopropyl-benzoyl)-1-(6-methyl-pyridazin-3-yl)-5-(6-trifluoromethyl-pyridin-3-yl)-1,5-dihydro-pyrrol-2-one]	< 10000 nM	< 10000 nM	
Cc1ccc(N2C(=O)C(O)=C(C(=O)c3ccc(C(C)C)cc3)C2c2ccc(C(F)(F)F)cn2)nn1 (stereo not shown) [Example 106, 3-hydroxy-4-(4-isopropyl-benzoyl)-1-(6-methyl-pyridazin-3-yl)-5-(5-trifluoromethyl-pyridin-2-yl)-1,5-dihydro-pyrrol-2-one]	< 10000 nM	< 10000 nM	
CCOc1ccc(C2C(C(=O)c3ccc(C(C)C)cc3)=C(O)C(=O)N2c2ccc(C)nn2)cn1 (stereo not shown) [Example 110, 5-(6-ethoxy-pyridin-3-yl)-3-hydroxy-4-(4-isopropyl-benzoyl)-1-(6-methyl-pyridazin-3-yl)-1,5-dihydro-pyrrol-2-one]	< 1000 nM	< 1000 nM	
Cc1ccc(N2C(=O)C(O)=C(C(=O)c3ccc(C(C)C)cc3)C2c2ccc(C(C)C)cn2)nn1 (stereo not shown) [Example 111, 3-Hydroxy-4-(4-isopropyl-benzoyl)-5-(5-isopropyl-pyridin-2-yl)-1-(6-methyl-pyridazin-3-yl)-1,5-dihydro-pyrrol-2-one]	< 10000 nM	< 10000 nM	
Cc1ccc(N2C(=O)C(O)=C(C(=O)c3ccc(OC(C)C)cc3)C2c2ccc(OC(F)(F)F)cc2)nn1 (stereo not shown) [Example 115, 3-hydroxy-4-(4-isopropoxy-benzoyl)-1-(6-methyl-pyridazin-3-yl)-5-(4-trifluoromethoxy-phenyl)-1,5-dihydro-pyrrol-2-one]	< 10000 nM	< 10000 nM	
CC(C)c1ccc(C(=O)C2=C(O)C(=O)N(c3ccc(Cl)nn3)C2c2ccc(OC(F)(F)F)cc2)cc1 (stereo not shown) [Example 118, 1-(6-chloro-pyridazin-3-yl)-3-hydroxy-4-(4-isopropyl-benzoyl)-5-(4-trifluoromethoxy-phenyl)-1,5-dihydro-pyrrol-2-one]	< 1000 nM	< 1000 nM	
C#Cc1ccc(C2C(C(=O)c3ccc(C(C)C)cc3)=C(O)C(=O)N2c2ccc(C)nn2)cc1 (stereo not shown) [Example 137, 5-(4-ethynyl-phenyl)-3-hydroxy-4-(4-isopropyl-benzoyl)-1-(6-methyl-pyridazin-3-yl)-1,5-dihydro-pyrrol-2-one]	< 10000 nM	< 10000 nM	
Cc1ccc(N2C(=O)C(NS(C)(=O)=O)=C(C(=O)c3ccc(C(C)C)cc3)C2c2ccc(OC(F)(F)F)cc2)nn1 (stereo not shown) [Example 149, N-[4-(4-isopropyl-benzoyl)-1-(6-methyl-pyridazin-3-yl)-2-oxo-5-(4-trifluoromethoxy-phenyl)-2,5-dihydro-1H-pyrrol-3-yl]-methanesulfonamide]	< 1000 nM	< 1000 nM	
CCOc1ccc(C2C(C(=O)c3ccc(C(C)C)cc3)=C(O)C(=O)N2c2ccc(C)nn2)cn1 (stereo not shown) [Example 155, 2-ethoxy-5-[4-hydroxy-3-(4-isopropyl-benzoyl)-1-(6-methyl-pyridazin-3-yl)-5-oxo-2,5-dihydro-1H-pyrrol-2-yl]-pyridinium; chloride]			EC50 (HCV replicon Luc Neo ET): < 1000 nM; EC50 (HCV NS5B genotype 1b; read-out: EC50_3DS_NS5B, Table 2, titled Replicon assay results): < 1000 nM
Cc1ccc(N2C(=O)C(O)=C(C(=O)c3ccc(C(C)C)cc3)C2c2ccc(C(C)(F)F)cc2)nn1 (stereo not shown) [Example 158, 5-[4-(1,1-difluoro-ethyl)phenyl]-3-hydroxy-4-(4-isopropyl-benzoyl)-1-(6-methyl-pyridazin-3-yl)-1,5-dihydro-pyrrol-2-one]	< 1000 nM	< 100 nM	
Cc1ccc(N2C(=O)C(O)=C(C(=O)c3ccc(C(F)(F)F)cc3)C2c2ccc(OC(F)(F)F)cc2)nn1 (stereo not shown) [Example 162, 3-hydroxy-1-(6-methyl-pyridazin-3-yl)-5-(4-trifluoromethoxy-phenyl)-4-(4-trifluoromethyl-benzoyl)-1,5-dihydro-pyrrol-2-one]	< 10000 nM	< 1000 nM	
Cc1ccc(N2C(=O)C(O)=C(C(=O)c3ccc(OC(F)(F)F)cc3)C2c2ccc(OC(C)C)nc2)nn1 (stereo not shown) [Example 169, 3-hydroxy-5-(6-isopropoxy-pyridin-3-yl)-1-(6-methyl-pyridazin-3-yl)-4-(4-trifluoromethoxy-benzoyl)-1,5-dihydro-pyrrol-2-one]	< 1000 nM	< 1000 nM	
CCOc1ccc([C@@H]2C(C(=O)c3ccc(C(C)C)cc3)=C(O)C(=O)N2c2ccc(C)nn2)cn1 [Example 192, 5(R)-(6-ethoxy-pyridin-3-yl)-3-hydroxy-4-(4-isopropyl-benzoyl)-1-(6-methyl-pyridazin-3-yl)-1,5-dihydro-pyrrol-2-one]	< 1000 nM	< 1000 nM	
Cc1ccc(N2C(=O)C(O)=C(C(=O)c3ccc(C(C)C)cc3)[C@H]2c2ccc(C(F)(F)F)nc2)nn1 [Example 195, 3-hydroxy-4-(4-isopropyl-benzoyl)-1-(6-methyl-pyridazin-3-yl)-5(R)-(6-trifluoromethyl-pyridin-3-yl)-1,5-dihydro-pyrrol-2-one]	< 1000 nM	< 1000 nM	
Cc1ccc(N2C(=O)C(O)=C(C(=O)c3ccc(C(C)C)cc3)[C@H]2c2ccc(C(C)(F)F)cc2)nn1 [Example 196, 5(R)-[4-(1,1-difluoro-ethyl)-phenyl]-3-hydroxy-4-(4-isopropyl-benzoyl)-1-(6-methyl-pyridazin-3-yl)-1,5-dihydro-pyrrol-2-one]	< 1000 nM	< 1000 nM	
Cc1ccc(N2C(=O)C(NS(C)(=O)=O)=C(C(=O)c3ccc(C(C)C)cc3)[C@H]2c2ccc(OC(F)(F)F)cc2)nn1 [Example 198, N-[4-(4-isopropyl-benzoyl)-1-(6-methyl-pyridazin-3-yl)-2-oxo-5(R)-(4-trifluoromethoxy-phenyl)-2,5-dihydro-1H-pyrrol-3-yl]-methanesulfonamide]	< 1000 nM	< 1000 nM	
